Measurements taken from patent US6610674B1, “Method of treating inflammatory conditions with progesterone analogs” (University of Pennsylvania, priority 1999, dated 2003).
Several values for one entry are separate records, joined by “and”; a condition that tells them apart may be missing. Equal values may be shown once.

Legend:
[1] = test system: lymphocytes infiltrating the large bowel lamina propria; test: scid mouse model of Inflammatory Bowel Disease: lymphocytes infiltrating the large bowel lamina propria; format: in vivo, scid C.B.-17 mice; settings: for effect on lymphocyte infiltration into the bowel (in words): compared to buffer control; for effect on lymphocyte infiltration into the bowel (in words) / CD4+ Lymphocytes, Average / CD4+ as a percent of total Lymphocytes, Average / Total Lymphocytes, Average: 25 mg/kg orally each day; for CD4+ Lymphocytes, Average / CD4+ as a percent of total Lymphocytes, Average / Total Lymphocytes, Average: group average; for CD4+ Lymphocytes / CD4+ as a percent of total Lymphocytes / Total Lymphocytes: individual mouse, 25 mg/kg orally each day until sacrifice, lamina propria, 25 mg/kg
Text: The scid (severe combined immunodeficient) C.B.-17 line of mice provide an effective model of Inflammatory Bowel Disease. The disease state in these mice is triggered by the intraperitoneal injection of CD4+ T cells from a normal BALB/C mouse. The induced disease is characterized by intestinal inflammation in the large intestine, leukocytic infiltrates into the mucosa, submucosa, and mucularis, epithelial cell hyperplasia, loss of mucin-secreting cells, and ulcers with deep fissures, and diarrhea. In the mouse model, CD4+ T cells and macrophages infiltrate the bowel. The scid mouse is recognized by the art as a model for IBD. Powrie et al., Inhibition of Th1 Responses Prevents Inflammatory Bowel Disease in scid Mice Reconstituted with CD45RBhi CD4+ T Cells, Immunity 1:553-562 (1994).
500,000 to 1×10^6 T cells derived from the lymph nodes of normal BALB/C mice were injected intraperitoneally into scid mice 6 weeks prior to sacrifice. 2 days before lymphocyte administration, treatment of the scid mice began with buffer control, medroxyprogesterone acetate, or 17-hydroxyprogesterone. The treatment mice (5 in each group) received 25 mg/kg of drug orally each day until sacrifice.
After sacrifice, lamina propria (bowel wall) lymphocytes were isolated from each animal. The total number of lymphocytes, number of CD4+ lymphocytes, and the percent of CD4+ lymphocytes was determined. CD4+ lymphocytes were identified by using a first antibody directed to CD4, and a second antibody directed to the first antibody. The second antibody was tagged with fluorescein, which lights up as green in a flow cytometer, identifying which lymphocytes are the CD4+ form. Lymphocyte infiltration into the bowel is a predictor of the progress of the disease because lymphocytes are involved in the inflammatory response leading to damage of the bowel wall.

[2] = test system: TNF-α release from macrophages; test: TNF-α release (ELISA) from spleen macrophages of treated mice; format: cell-based, mouse
Experimental: The spleens of six of the mice from Example 1 were removed after the animals were sacrificed. Macrophages were isolated from the spleen of the medroxyprogesterone acetate or buffer control treated mice. TNF-α release from these macrophages was measured by ELISA following stimulation with either (1) rat anti-mouse macrophage Fc receptor antibody 2.4G2 and F(ab′)2 IgG goat anti-rat antibody, or (2) phorbol myristate acetate (“PMA”), a phorbol ester. The effect of medroxyprogesterone acetate on TNF-α release is illustrated in Table 2.

[3] = test system: IL-6 release from macrophages; test: IL-6 release (ELISA) from spleen macrophages of treated mice; format: cell-based, mouse
Experimental: The spleens of four of the mice from Example 1 were removed after the animals were sacrificed. Macrophages were isolated from the spleen of the medroxyprogesterone acetate or buffer control treated mice. IL-6 release from these macrophages was measured by ELISA following stimulation with rat anti-mouse macrophage Fc receptor antibody 2.4G2 and F(ab′)2 IgG goat anti-rat antibody. The effect of medroxyprogesterone acetate on IL-6 release is illustrated in Table 3.

[4] = test system: Patients with mild to moderate ulcerative colitis; test: Treatment of patients with ulcerative colitis (Disease Activity Index); format: in vivo, human
Experimental: (§1) Patients with mild to moderate ulcerative colitis were evaluated for their response to treatment with medroxyprogesterone acetate. Patients in the treatment group (8 patients) received a loading dose of 1 gram of medroxyprogesterone acetate every 6 hours for 8 doses. These patients were then given 500 mg of medroxyprogesterone every 12 hours for 8 weeks.
Disease improvement was measured using the Disease Activity Index (DAI). The DAI is a total score for stool frequency, blood in the stool, the investigator's global assessment (IGA), and the physician's evaluation of the appearance of mucosa during flexible sigmoidoscopy of the colon.

[5] = test system: Patients with mild to moderate Crohn's disease; test: Treatment of patients with Crohn's disease (CDAI); format: in vivo, human
Experimental: as §1, with “moderate Crohn's disease” for “moderate ulcerative colitis”, “with […]” for “with medroxyprogesterone”, “group (12” for “group (8”, “patients) recieved” for “patients) received”
Disease improvement was measured using the Crohn's Disease Activity Index (CDAI). The CDAI score for a patient was calculated by multiplying the numerical value for each variable by multiplication factor indicated for that variable, and totaling all of the resultant values, as shown in Table 5. A score below 150 indicated remission and a score above 450 indicated severe disease. In order to enter the study, patients were required to have a total CDAI score of 200 to 400 at baseline.
Disease remission was defined as a CDAI score of 150 or below. Disease response was defined as either a decrease of 70 or greater in the CDAI or disease remission.

[6] = individual mouse, stimulation 2.4G2 and F(ab′)2 IgG anti-rat, listed as MPA

| Compound | effect on lymphocyte infiltration into the bowel (in words) [1] | CD4+ Lymphocytes, Average [1] | CD4+ as a percent of total Lymphocytes, Average [1] | Total Lymphocytes, Average [1] | CD4+ Lymphocytes [1] | CD4+ as a percent of total Lymphocytes [1] | Total Lymphocytes [1] | TNF-α Measurement [2, 6] | TNF-α Repeat Measurement [2, 6] | TNF-α Repeat Measurement ([2]; individual mouse, stimulation PMA for Repeat Measurement) | effect on TNF-α release from macrophages (in words) ([2]; macrophages from treated mice) | IL-6 Measurement [3, 6] | effect on IL-6 release from macrophages (in words) ([3]; macrophages from treated mice) | patients showing improvement with treatment ([4]; 8 weeks, 8 patients) | Improvement (reduction of one or more units in DAI score at end of study vs baseline) ([4]; individual patient, 1 g every 6 hours for 8 doses, then 500 mg every 12 hours for 8 weeks) | non-responders with reduction in symptoms and complaints during initial treatment ([4]; of the 3 patients who did not respond at end of 8 week study) | adverse event leading to drop out ([5]; 12 patients treated) | Remissions (CDAI score of 150 or below) ([5]; Completers (10 patients), 8 weeks) |
| --- | --- | --- | --- | --- | --- | --- | --- | --- | --- | --- | --- | --- | --- | --- | --- | --- | --- | --- |
| CC(=O)[C@@]1(O)CC[C@H]2[C@@H]3CCC4=CC(=O)CC[C@]4(C)[C@H]3CC[C@@]21C [17-hydroxyprogesterone] | did not work in treating the mice | 16.3 1 × 106 | 88.0% | 18.4 1 × 106 | 8.9 1 × 106 and 1.6 1 × 106 and 15 1 × 106 and 23 1 × 106 | 89% and 81% and 93% and 91% | 10 1 × 106 and 2 1 × 106 and 16.5 1 × 106 and 25.2 1 × 106 | – | – | – | – | – | – | – | – | – | – | – |
| CC(=O)O[C@]1(C(C)=O)CC[C@H]2[C@@H]3C[C@H](C)C4=CC(=O)CC[C@]4(C)[C@H]3CC[C@@]21C [Medroxyprogesterone Acetate, pregn-4-ene-3,20-dione, 17-(acetyloxy)-6-methyl-, (6α)-] | effective in decreasing lymphocyte infiltration into the bowel | 3.8 1 × 106 | 81.4% | 4.5 1 × 106 | 1.6 1 × 106 and 4.1 1 × 106 and 1.3 1 × 106 and 3.0 1 × 106 and 9.2 1 × 106 | 81% and 87% and 65% and 83% and 91% | 2 1 × 106 (2×) and 4.8 1 × 106 and 3.6 1 × 106 and 10.2 1 × 106 | 2314 pg/mL and 27563 pg/mL and 1843 pg/mL | 1026 pg/mL and 0 pg/mL | 0 pg/mL | may be inhibiting TNF-α release from macrophages | 298,940 and 266,557 | may be inhibiting IL-6 release from macrophages | Five out of eight | Yes (5×) and No (3×) | 2 patients | One patient dropped out for a minor adverse event (fatigue) | 7 |
